MIC data for one compound are collected here from DBAASP.

Each structure is given as a SMILES string. ≈ marks a conversion by molar mass, not a printed value.

Assay in all cases: ≥ marks a high value that may be exact or a test limit, other limits are often not marked, values filed in µg/mL are converted to µM
Assay [1] deals with Acinetobacter baumannii Ab5753.
Assay [2] concerns Acinetobacter baumannii Ab5755.
Assay [3] concerns Acinetobacter baumannii ICB 14072.
Assay [4] has as its system Acinetobacter baumannii ICB 14073.
Assay [5] relates to Acinetobacter baumannii M17.
Assay [6] deals with Escherichia coli Ec513.
The test system of assay [7] is Escherichia coli O157:H7.
Assay [8] has as its system Klebsiella pneumoniae ATCC 10031.
Assay [9] concerns Klebsiella pneumoniae DSM 681.
For assay [10], the system named is Proteus vulgaris ICB 9081.
Assay [11] relates to Pseudomonas aeruginosa Pa1409.
Assay [12] has as its system Pseudomonas aeruginosa Pa4216.
For assay [13], the system named is Pseudomonas aeruginosa Walter.
In assay [14] the test system is Pseudomonas aeruginosa.
Assay [15] relates to Salmonella typhimurium CMCC 50115.
In assay [16] the test system is Salmonella typhimurium SL1344.
Assay [17] concerns Stenotrophomonas sp. ICB 308054.

Take `CC[C@H](C)[C@H](NC(=O)[C@H](CCCN=C(N)N)NC(=O)[C@H](CCCN=C(N)N)NC(=O)[C@@H]1CCCN1C(=O)[C@@H]1CCCN1C(=O)[C@H](CCCN=C(N)N)NC(=O)[C@@H]1CCCN1C(=O)[C@H](CCCN=C(N)N)NC(=O)[C@@H]1CCCN1C(=O)[C@H](CC(C)C)NC(=O)[C@H](Cc1ccc(O)cc1)NC(=O)[C@@H]1CCCN1C(=O)[C@@H]1CCCN1C(=O)[C@H](CCCCN)NC(=O)[C@H](CC(=O)O)NC(=O)[C@@H](N)C(C)C)C(=O)N[C@@H](Cc1ccc(O)cc1)C(=O)N[C@@H](CC(N)=O)C(=O)N[C@@H](CCCN=C(N)N)C(N)=O` [VDKPPYLPRPRPPRRIYNR]: the minimum inhibitory concentration (MIC) was at least 53.5 µM in [1]; at least 53.5 µM in assay [2]; 0.418 µM (≈ 1 µg/mL) in [3]; 0.837 µM (≈ 2 µg/mL) in assay [4]; 0.418 µM (≈ 1 µg/mL) in assay [5]; at least 53.5 µM in assay [6]. Further, the minimal inhibitory concentration (MIC) in assay [7] was 1.31 µM (≈ 3.14 µg/mL); in assay [8], 4 µM (≈ 9.56 µg/mL); in assay [9] it was 1.67 µM (≈ 4 µg/mL); in assay [10], 1.67 µM (≈ 4 µg/mL); in [11], at least 53.5 µM; in [12], at least 53.5 µM. The MIC was 3.35 µM (≈ 8 µg/mL) in [13]; 1.18 µM (≈ 2.83 µg/mL) in assay [14]; 8 µM (≈ 19.1 µg/mL) in assay [15]; 0.251 µM (≈ 0.6 µg/mL) in assay [16]; 13.4 µM (≈ 32 µg/mL) in [17].

Usually MIC stands for the smallest concentration in the dilution series that meets the test's criterion for growth inhibition. Low values mean greater potency, high ones weaker potency.
